Results as given in ChEMBL document CHEMBL3120161, “Antimycobacterial activity of nitrogen heterocycles derivatives: bipyridine derivatives. Part III” (Eur J Med Chem, 2014).
≈ marks a conversion by molar mass, not a printed value.

Columns and labels:
Format in all cases: functional
[1] = test system: Mycobacterium tuberculosis; test: Antimycobacterial activity against rifampin-resistant Mycobacterium tuberculosis H37Rv SRI 1367 after 7 days by broth microdilution assay; settings: H37Rv SRI 1367, 168 h
[2] = test system: Mycobacterium tuberculosis; test: Antimycobacterial activity against rifampin-resistant Mycobacterium tuberculosis H37Rv SRI 1367 at MIC after 7 days by broth microdilution assay relative to control
[3] = test system: Mycobacterium tuberculosis; test: Antimycobacterial activity against ofloxacin-resistant Mycobacterium tuberculosis H37Rv SRI 4000 after 7 days by broth microdilution assay; settings: H37Rv SRI 4000, 168 h
[4] = test system: Mycobacterium tuberculosis; test: Antimycobacterial activity against isoniazid-resistant Mycobacterium tuberculosis H37Rv SRI 1369 after 7 days by broth microdilution assay; settings: H37Rv SRI 1369, 168 h
[5] = test system: Mycobacterium tuberculosis; test: Antimycobacterial activity against isoniazid-resistant Mycobacterium tuberculosis H37Rv SRI 1369 at MIC after 7 days by broth microdilution assay relative to control
[6] = test system: Mycobacterium tuberculosis; test: Antimycobacterial activity against ofloxacin-resistant Mycobacterium tuberculosis H37Rv SRI 4000 at MIC after 7 days by broth microdilution assay relative to control

NNC(=O)c1ccncc1 [ISONIAZID]
MIC [1]: 0.02 µg/mL (≈ 0.146 µM) | inhibition (INH) [2]: 92%

CO[C@H]1/C=C/O[C@@]2(C)Oc3c(C)c(O)c4c(O)c(c(/C=N/N5CCN(C)CC5)c(O)c4c3C2=O)NC(=O)/C(C)=C\C=C\[C@H](C)[C@H](O)[C@@H](C)[C@@H](O)[C@@H](C)[C@H](OC(C)=O)[C@@H]1C [RIFAMPIN]
MIC [3]: 0.05 µg/mL (≈ 0.0608 µM) | MIC [4]: 0.02 µg/mL (≈ 0.0243 µM) | inhibition (INH) [5]: 56% | inhibition (INH) [6]: 80%

CCOC(=O)c1cc(C(=O)c2ccccc2)n2ccc(-c3cc[n+](CC(=O)c4ccc(OC)cc4)cc3)cc12.[Br-]
MIC [3]: 1.17 µg/mL | MIC [4]: 4.69 µg/mL | MIC [1]: 1.17 µg/mL | inhibition (INH) [2]: 65% | inhibition (INH) [5]: 60% | inhibition (INH) [6]: 61%
